Tests used:
human FXR = molecular target: T1, human FXR (Homo sapiens, UniProt Q96RI1); assay: full-length FXR reporter gene (transactivation) assay in HeLa cells; type: cell-based; details: for Emax: HeLa, read-out: FXR activation max. rel. activation (converted); for EC50: full-length FXR reporter gene assay, HeLa cells, read-out: FXR activation EC50
T1 construct: characterized in a full-length (fl) FXR reporter gene assay in HeLa cells; expressed in transfected cells; host or cells: HeLa
T1 sequence (Q96RI1 1-486): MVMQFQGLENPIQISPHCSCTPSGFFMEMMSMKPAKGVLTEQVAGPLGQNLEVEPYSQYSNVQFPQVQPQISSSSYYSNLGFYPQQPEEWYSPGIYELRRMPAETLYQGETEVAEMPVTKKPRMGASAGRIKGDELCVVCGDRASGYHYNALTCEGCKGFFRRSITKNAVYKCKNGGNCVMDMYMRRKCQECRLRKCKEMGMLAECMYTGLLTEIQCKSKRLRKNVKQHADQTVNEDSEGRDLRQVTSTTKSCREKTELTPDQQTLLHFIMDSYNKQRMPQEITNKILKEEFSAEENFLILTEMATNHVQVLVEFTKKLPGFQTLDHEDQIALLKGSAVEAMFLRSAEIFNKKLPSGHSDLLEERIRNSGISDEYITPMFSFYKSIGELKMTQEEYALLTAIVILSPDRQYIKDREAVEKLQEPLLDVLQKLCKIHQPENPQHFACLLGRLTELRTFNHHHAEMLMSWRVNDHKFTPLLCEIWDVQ
T1 sequence (P19793 1-462 partner): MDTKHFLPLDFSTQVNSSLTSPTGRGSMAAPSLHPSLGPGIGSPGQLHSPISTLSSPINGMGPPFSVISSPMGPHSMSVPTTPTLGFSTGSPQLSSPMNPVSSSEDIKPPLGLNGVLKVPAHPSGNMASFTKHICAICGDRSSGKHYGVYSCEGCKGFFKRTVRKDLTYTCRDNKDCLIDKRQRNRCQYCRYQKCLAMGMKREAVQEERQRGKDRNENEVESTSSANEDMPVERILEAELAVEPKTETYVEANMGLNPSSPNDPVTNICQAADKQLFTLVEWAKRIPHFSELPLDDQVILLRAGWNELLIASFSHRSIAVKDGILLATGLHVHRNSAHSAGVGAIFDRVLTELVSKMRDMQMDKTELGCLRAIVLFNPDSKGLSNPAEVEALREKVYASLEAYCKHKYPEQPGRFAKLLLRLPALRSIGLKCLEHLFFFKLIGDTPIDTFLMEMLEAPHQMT
From the text: (§1) This assay is based on a reporter construct containing a firefly luciferase under the control of the FXR response element from bile salt export protein (BSEP). FXR and its hetero dimer partner retinoid X receptor (RXR) as expression constructs under the control of a CMV promoter as well as a constitutively expressed renilla luciferase (SV40 promoter) for normalization and toxicity control were co-transfected. […] The sEH inhibitory potency of the test compounds was quantified in a fluorescence-based assay using recombinant enzyme and the fluorogenic sEH substrate PHOME^37 that is hydrolyzed to a fluorescent 6-methoxynaphtaldehyde by sEH.
Plasmids: pcDNA3-hFXR contains the sequence of human FXR and was already published elsewhere.^47 pGL3 basic (Promega Corporation, Fitchburg, Wis., USA) was used as a reporter plasmid, with a shortened construct of the promotor of the bile salt export protein (BSEP) cloned into the SacI/NheI cleavage site in front of the luciferase gene.^48 pRL-V40 (Promega) was transfected as a control for normalization of transfection efficiency and cell growth. pSG5-hRXR was already published elsewhere as well.^49
Assay procedure: HeLa cells were grown in DMEM high glucose supplemented with 10% FCS, sodium pyruvate (1 mM), penicillin (100 U/mL) and streptomycin (100 μg/mL) at 37° C. and 5% CO2. […] Transient transfection of HeLa cells with BSEP-pGL3, pRL-SV40 and the expression plasmids pcDNA3-hFXR and pSG5-hRXR was carried out using calcium phosphate transfection method. […] Each concentration was tested in triplicate wells and each experiment was repeated independently at least three times. […] Luminescence was measured with a Tecan Infinite M200 luminometer (Tecan Deutschland GmbH, Crailsheim, Germany). Normalization of transfection efficiency and cell growth was done by division of firefly luciferase data by renilla luciferase data multiplied by 1000 resulting in relative light units (RLU). Fold activation was obtained by dividing the mean RLU of the tested compound at a respective concentration by the mean RLU of untreated control. […] EC50 and standard error of the mean values were calculated with the mean relative activation values of at least three independent experiments by SigmaPlot 10.0 (Systat Software GmbH, Erkrath, Germany) using a four parameter logistic regression.

[1] = molecular target: T2, cellular sEH (HepG2 cell homogenates) (Homo sapiens, UniProt P34913); details: 10 μM (positive control); DMSO 63±16, blank 499±123
T2 sequence (P34913 1-555): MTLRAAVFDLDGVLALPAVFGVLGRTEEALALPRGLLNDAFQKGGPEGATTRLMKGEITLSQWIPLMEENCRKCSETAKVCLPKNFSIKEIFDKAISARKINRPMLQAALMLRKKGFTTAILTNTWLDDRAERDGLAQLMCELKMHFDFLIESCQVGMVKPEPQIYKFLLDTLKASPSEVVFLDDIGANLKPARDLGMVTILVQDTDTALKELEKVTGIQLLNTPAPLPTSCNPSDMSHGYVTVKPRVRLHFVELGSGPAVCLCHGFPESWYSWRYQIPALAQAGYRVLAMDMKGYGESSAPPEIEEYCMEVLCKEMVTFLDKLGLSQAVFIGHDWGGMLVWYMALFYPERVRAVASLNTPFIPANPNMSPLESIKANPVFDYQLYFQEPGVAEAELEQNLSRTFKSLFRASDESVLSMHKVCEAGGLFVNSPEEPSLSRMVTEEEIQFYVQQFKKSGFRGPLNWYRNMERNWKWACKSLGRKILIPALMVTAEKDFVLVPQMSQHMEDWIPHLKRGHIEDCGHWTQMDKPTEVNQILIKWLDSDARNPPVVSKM
Method: 25 ng (+)14(15)-EET-d11 (Cayman Chemical, Ann Arbor, USA) was added and incubation was continued for additional to min at 37° C. A blank test was performed with PBS (containing 0.1 mg/ml BSA) treated likewise. The reactions were stopped by adding 100 μl of ice cold methanol. After centrifugation (2000 rpm, 4° C., 5 min), supernatants were analyzed by LC-MS/MS and the amounts of (±)14(15)-EET-d11 and the corresponding (±)14(15)-DHET-d11 were determined.

aqueous solubility = type: physicochemical; details: LLOQ 0.1 μg/mL
recombinant human sEH = molecular target: T3, recombinant human sEH (Homo sapiens, UniProt P34913); assay: fluorescence-based sEH activity assay with PHOME substrate; type: biochemical; details: recombinant human sEH, PHOME; read-out: sEH inhibition IC50
T3 sequence (P34913 1-555): T2 sequence (P34913 1-555)
From the text: as §1
The sEH inhibitory potency of the compounds were determined in a fluorescence-based 96-well sEH activity assay using recombinant human enzyme^50,51. Non-fluorescent PHOME (3-phenylcyano-(6-methoxy-2-naphthalenyl)methyl ester 2-oxiraneacetic acid; Cayman Chemicals) which can be hydrolyzed by the sEH to fluorescent 6-methoxynaphthaldehyde served as substrate. Recombinant human sEH (in Bis-Tris buffer, pH 7, with 0.1 mg/mL BSA containing a final concentration of 0.01% Triton-X 100) was pre-incubated with test compounds (in DMSO, final DMSO concentration: 1%) for 30 min at room temperature. […] A blank control (no protein and no compound) as well as a positive control (no compound) were executed. All experiments were conducted in triplicate and repeated in at least three independent experiments. For IC50 calculation, dose-response curves of increasing compound concentrations were recorded.

[2] = system: PPARγ target genes CD36 and FAM3A; assay: PPARγ target gene mRNA quantification (qRT-PCR) in HepG2 cells; type: cell-based; details: HepG2, 1 μM

Compound	Emax (human FXR) [%]	IC50 (recombinant human sEH) [µM]	EC50 (human FXR) [µM]	other results
O=C(Nc1ccc(I)cc1)NC1CCCCC1 [CIU, reference compound]				activity in FXR reporter gene assay (human FXR; 10 μM): no activity; (±)14(15)-EET-d11/(±)14(15)-DHET-d11 ratio [1]: 519±55
CC(C)(C)c1ccc(C(=O)NCc2ccc(NC(=O)C(F)(F)F)cc2Cl)cc1 [compound 56]	21			aqueous solubility (aqueous solubility): < 0.1 µg/mL
CC(C)(C)c1ccc(C(=O)NCc2ccc(NS(C)(=O)=O)cc2Cl)c(O)c1 [compound 77, 4-(tert-Butyl-2-hydroxy)-N-(2-chloro-4-(methylsulfonamido)benzyl)benzamide]		0.38 ± 0.05		FXR activation (result in words) (human FXR): antagonistic
CC(C)(C)c1ccc(C(=O)NCc2ccc(NS(C)(=O)=O)cc2Cl)cc1O [compound 78, 4-(tert-Butyl-3-hydroxy)-N-(2-chloro-4-(methylsulfonamido)benzyl)benzamide]	24	0.016 ± 0.0006	0.003 ± 1e-06	
CC(C)(C)c1ccc(C(=O)NCc2ccc(NS(C)(=O)=O)cc2C(F)(F)F)cc1 [compound 80, 4-(tert-Butyl)-N-(2-trifluoromethyl-4-(methylsulfonamido)benzyl)benzamide]	19	0.002 ± 8e-05	1.2 ± 0.18	
CC(C)S(=O)(=O)Nc1ccc(CNC(=O)c2ccc(C(C)(C)C)cc2)c(Cl)c1 [compound 81, 4-(tert-Buty)-N-(2-chloro-4-(isopropylsulfonamide)benzyl)-benzamide]	11	0.011 ± 0.0003	0.42 ± 0.02	
CCS(=O)(=O)Nc1ccc(CNC(=O)c2ccc(C(C)(C)C)cc2)c(Cl)c1 [compound 82, 4-(tert-Butyl)-N-(2-chloro-4-(ethylsulfonamido)benzyl)-benzamide]	23	0.006 ± 0.0005	0.49 ± 0.05	
CN(C)c1ccc(C(=O)NCc2ccc(NS(C)(=O)=O)cc2Cl)cc1 [compound 83, 4-(Dimethylamino)-N-(2-chloro-4-(methylsulfonamido)benzyl)benzamide]	23	0.045 ± 0.002	1.46 ± 0.023	
CS(=O)(=O)Nc1ccc(CNC(=O)c2ccc(C3(C(F)(F)F)CC3)cc2)c(Cl)c1 [compound 84, 4-((1-Trifluoromethyl)cycloprop-1-yl)-N-(2-chloro-4-(methylsulfonamido)benzyl)benzamide]	31	0.004 ± 0.0004	0.54 ± 0.02	
CCc1ccc(CCOc2ccc(CC3SC(=O)NC3=O)cc2)nc1 (centres unmarked) [pioglitazone, reference compound]				CD36 mRNA expression compared to vehicle set as 100% [2]: 353±43%; FAM3A mRNA expression compared to vehicle set as 100% [2]: 310±66%

Source: patent US20200172473A1, “DUAL MODULATORS OF FARNESOID X RECEPTOR AND SOLUBLE EPOXIDE HYDROLASE” (JOHANN WOLFGANG GOETHE-UNIVERSITÄT FRANKFURT AM MAIN, priority 2017, published 2020)
